Laboratory results published in PubChem BioAssay (NCI).
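A five-concentration, 48-hour dose response in 96-well plates underlies each endpoint, interpolated linearly between surrounding concentrations. At the TGI there is no net growth.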

Assays:
Experiment in all cases: DTP human tumour cell line panel, 48 h
BT-549 breast = tested on: BT-549 breast
CAKI-1 renal = tested on: CAKI-1 renal
EKVX NSCLC = tested on: EKVX NSCLC
HCC-2998 colon = tested on: HCC-2998 colon
HCT-15 colon = tested on: HCT-15 colon
IGROV1 ovarian = tested on: IGROV1 ovarian
MDA-MB-435 = tested on: MDA-MB-435
MOLT-4 leukemia = tested on: MOLT-4 leukemia
NCI-H460 lung = tested on: NCI-H460 lung
OVCAR-3 ovarian = tested on: OVCAR-3 ovarian
OVCAR-8 ovarian = tested on: OVCAR-8 ovarian
PC-3 prostate = tested on: PC-3 prostate
RXF 393 renal = tested on: RXF 393 renal
SF-268 CNS = tested on: SF-268 CNS
SF-539 CNS = tested on: SF-539 CNS
SN12C renal = tested on: SN12C renal

Compound | TGI (BT-549 breast) | TGI (CAKI-1 renal) | TGI (EKVX NSCLC) | TGI (HCC-2998 colon) | TGI (HCT-15 colon) | TGI (IGROV1 ovarian) | TGI (MDA-MB-435) | TGI (MOLT-4 leukemia) | TGI (NCI-H460 lung) | TGI (OVCAR-3 ovarian) | TGI (OVCAR-8 ovarian) | TGI (PC-3 prostate) | TGI (RXF 393 renal) | TGI (SF-268 CNS) | TGI (SF-539 CNS) | TGI (SN12C renal)
COc1ccc(-c2nc3ccc(C)cc3o2)c(OC)c1 | 67.1 µM | 76.1 µM | 63 µM | 45.8 µM | 58.8 µM | 76.3 µM | 52.9 µM | 52.9 µM | 65.6 µM | 46.9 µM | 77.1 µM | 67.1 µM | 53.8 µM | 77.4 µM | 40.9 µM | > 82.1 µM
C[C@H](CCc1nc(C#N)c(N)o1)[C@H]1CC[C@H]2[C@@H]3[C@@H](O)CC4C[C@@H](O)CC[C@]4(C)[C@H]3C[C@@H](O)[C@]12C (some centres undefined) | 25.3 µM | > 100 µM | 98.1 µM | 36.5 µM | > 93 µM | 33.2 µM | 48.8 µM | > 59.7 µM | 54.9 µM | > 56.9 µM | 41.7 µM | 49.1 µM | 35.9 µM | > 91.5 µM | 59.5 µM | > 79.6 µM
CC(C)(C)OC(=O)C(C1NC(C(=O)O)C(C)(C)S1)N1C(=O)c2ccccc2C1=O (centres undefined) | > 100 µM | > 100 µM | > 100 µM | > 100 µM | > 100 µM | > 100 µM | > 100 µM | > 100 µM | > 100 µM | > 100 µM | > 100 µM | > 100 µM | > 100 µM | > 100 µM | > 100 µM | > 100 µM
Cn1cc(-c2ccc(CCOC3CCCCO3)cc2)c2c(C#N)cccc21 (centres undefined) | > 100 µM | > 100 µM | > 100 µM | > 100 µM | > 100 µM | > 100 µM | > 100 µM | > 100 µM | > 100 µM | > 100 µM | > 100 µM | > 100 µM | > 100 µM | > 100 µM | > 100 µM | > 100 µM
CC(C)(C)SC1=CCC[C@@H](P(=O)(c2ccccc2)c2ccccc2)[C@@H]2CCC[C@@H]12 | 32.3 µM | 32.9 µM | 33.7 µM | 29.9 µM | 33 µM | 36 µM | 33.1 µM | 38.1 µM | 30.8 µM | 32.7 µM | 39.2 µM | 28.6 µM | 29.9 µM | 35.5 µM | 36.5 µM | 29.3 µM
CS(=O)(=O)C(=Cc1ccccc1Cl)S(C)(=O)=O | > 100 µM | > 100 µM | > 100 µM | > 100 µM | > 100 µM | > 100 µM | > 100 µM | > 100 µM | > 100 µM | > 100 µM | > 100 µM | > 100 µM | > 100 µM | > 100 µM | > 100 µM | > 100 µM
COC(=O)C1=NN2c3ccccc3CN([C@@H](C)c3ccccc3)C(=O)[C@@H]2C1 | 64.9 µM | 77.7 µM | > 100 µM | > 100 µM | > 100 µM | > 100 µM | 34 µM | 46.5 µM | > 100 µM | 97.9 µM | > 100 µM | > 100 µM | > 100 µM | > 100 µM | > 100 µM | > 100 µM
CCC(=S)N(C)O | > 100 µM | > 100 µM | > 100 µM | > 95.7 µM | > 100 µM | > 37 µM | > 100 µM | 46.9 µM | 70.3 µM | > 100 µM | > 97.1 µM | > 100 µM | > 100 µM | > 100 µM | 84.1 µM | > 100 µM
COC(=O)C(Cc1ccccc1)NS(=O)(=O)c1ccc(-c2c3nc(c(-c4ccc(S(=O)(=O)NC(Cc5ccccc5)C(=O)OC)cc4)c4ccc([nH]4)c(-c4ccc(S(=O)(=O)NC(Cc5ccccc5)C(=O)OC)cc4)c4nc(c(-c5ccc(S(=O)(=O)NC(Cc6ccccc6)C(=O)OC)cc5)c5ccc2[nH]5)C=C4)C=C3)cc1 (centres undefined) | > 100 µM | > 100 µM | > 100 µM | > 100 µM | > 100 µM | > 100 µM | > 100 µM | > 100 µM | > 100 µM | > 100 µM | > 100 µM | > 100 µM | > 100 µM | > 100 µM | > 100 µM | > 100 µM
